Values joined by “and” are separate entries in the source; they are usually repeats but may differ in a detail not shown here. Equal values may be shown once.
Legend:
[1] = system: selected transcripts; test: Salmon calcitonin/PTS893 monkey study: real-time PCR of selected transcripts; assay type: in vivo, cynomolgus monkeys (Macaca fascicularis); conditions: normalized to β-actin
Description: Based on the DNA microarray data a set of transcripts was chosen for quantitative analysis by real time-PCR(RT-PCR).
Briefly, the method exploits the SyBr Green dye which intercalates into double stranded DNA. Accumulation of PCR products is detected directly by monitoring the increase in fluorescence of the SyBr Green dye. Reactions are characterised by the point in time during cycling when amplification of a PCR product is first detected rather than the amount of PCR product accumulated after a fixed number of cycles. The higher the starting copy number of nucleic acid target, the sooner a significant increase in fluorescence is observed.
From each RNA sample, cDNA was made using an Applied Biosystem kit (Applied Biosystems # N808-0234) following the recommendation of the manufacturer. The PCR mixture was prepared using the SyBr Green Universal PCR Master Mix (Applied Biosystems #4309155) as follows: 5 μl cDNA template, 400 nM of each primer, 0.2 mM deoxynucleotide triphosphates, 1 mM MgC12 and 0.5 U Taq DNA polymerase, 5 μl SyBr Green PCR buffer and RNase free water up to a final volume of 50 μl. The PCR was performed using the ABI Prism 7700 Sequence Detection System, after a step at 95° C. for 10 min, the step-cycle program was performed for a total of 40 cycles as follows: 95° C. for 30 s, 60° C. for 1 min. A negative control was included: PCR reaction mixture with water in place of the cDNA sample.
The initial template concentration was determined based on the threshold cycle. […] Quantification was performed by calculating the unknown target concentration relative to an absolute standard and by normalizing to a validated endogenous control such as a housekeeping gene (β-actin). Results are presented as percentage of control, once the ratio between the numbers of molecule for the gene of interest divided by the number of molecule for beta-actin has been calculated.
Based on the DNA microarray data the following set of transcripts was chosen for quantitative analysis by RT-PCR: adhesion receptor CD44, angiopoietin, bone morphogenetic protein 5, carbonic anhydrase II, cartilage oligomeric matrix protein, cathepsin K, osteopontin, pre-pro-alpha-2 type I collagen, Spi-B and Y-box binding protein.

[2] = system: bone tissue; test: Salmon calcitonin/PTS893 monkey study: histomorphometry of bone tissue (tibia, vertebra); assay type: in vivo, cynomolgus monkeys (Macaca fascicularis)
Description: Bone sections were stained for osteonectin, osteopontin and osteocalcin and were evaluated histopathologically. Histomorphometry of the bone tissue was performed regarding parameters for bone resorption and synthesis (osteoid formation).
Histomorphometry of bone tissue was performed to determine parameters related to bone resorption and bone synthesis (osteoid formation).

[3] = system: somatostatin receptors; conditions: cited from earlier work
[4] = Routine clinical and biochemical observations in FGF23CTP-treated monkeys; assay type: in vivo, cynomolgus monkey; conditions: 100 μg/day sc, two weeks
[5] = system: retinal neuronal layers
Description: The total thickness of the outer nuclear layer, the inner nuclear layer and the ganglion cell layer is measured using a standardized magnification after paraffin embedding and hematoxylin and eosin (HE)-staining. Three sections of each eye are measured at three locations each. […] Sections are encoded for evaluation.

[6] = tibia, group mean (males and females)
[7] = tibia, individual animals (males and females)
[8] = vertebra, group mean (males and females)
[9] = vertebra, individual animals (males and females)
[10] = right eye (FGF23CTP), average of all measurements of three animals, x200 magnification

Leu8, Asp10, Lysll, A1a16, G1n18, Thr33, A1a34 human PTH 1-34 [PTS893, Leu8, Asp10, Lysll, A1a16, G1n18, Thr33, A1a34 human PTH 1-34 [hPTH(1-34)]]
Real Time PCR Treatment Effect: Y-box binding protein (bone) (36140_at) ([1]; bone): +26 % respect to control | Real Time PCR Treatment Effect: Spi-B (35883_at) [1]: −18 % respect to control | Real Time PCR Treatment Effect: adhesion receptor CD44 (1372_at) [1]: No change | Real Time PCR Treatment Effect: angiopoietin-1 (1929_at) [1]: No change | Real Time PCR Treatment Effect: bone morphogenetic protein 5 (1831_at) [1]: +18 % respect to control | Real Time PCR Treatment Effect: carbonic anhydrase II (40095_at) [1]: No change | Real Time PCR Treatment Effect: cartilage oligomeric matrix protein (40161_at) [1]: No change | Real Time PCR Treatment Effect: cathepsin K (128_at) [1]: No change | Real Time PCR Treatment Effect: osteopontin (2092_s_at) [1]: No change | Real Time PCR Treatment Effect: pre-pro-alpha-2 type I collagen (32306_g_at) [1]: +62 % respect to control | Increase in osteoid surface ([2]; tibia): 49% | Increase in osteoid volume ([2]; tibia): 37% | Increase in the osteoblast surface ([2]; tibia): 40% | Increase of cortical porosity ([2]; tibia (T)): 54% | Reduction of cortical thickness ([2]; tibia (T)): 18% | BT/TV (trabecular bone volume) [2, 6]: 21.72% | Ct Por (cortical porosity) [2, 6]: 2.90% | Ct Th (cortical thickness) [2, 6]: 951.48 μm | ES/BS (eroded surface) [2, 6]: 4.11% | OS/BS (osteoid surface) [2, 6]: 49.25% | OV/BV (osteoid volume) [2, 6]: 9.74% | Obs/BS (osteoblast surface) [2, 6]: 20.28% | Tb N (trabecular number) [2, 6]: 1.85 mm^−1 | Tb Th (trabecular thickness) [2, 6]: 117.25 μm | BT/TV (trabecular bone volume) [2, 7]: 19.69% and 16.65% and 25.74% and 24.78% | Ct Por (cortical porosity) [2, 7]: 2.76% and 2.94% (2×) and 2.95% | Ct Th (cortical thickness) [2, 7]: 1022.62 μm and 893.43 μm and 950.33 μm and 939.53 μm | ES/BS (eroded surface) [2, 7]: 4.62% and 4.76% and 4.21% and 2.85% | OS/BS (osteoid surface) [2, 7]: 54.84% and 43.57% and 43.63% and 54.97% | OV/BV (osteoid volume) [2, 7]: 11.24% and 9.61% and 8.14% and 9.95% | Obs/BS (osteoblast surface) [2, 7]: 16.16% and 21.25% and 18.46% and 25.25% | Tb N (trabecular number) [2, 7]: 1.52 mm^−1 and 1.79 mm^−1 and 2.13 mm^−1 and 1.97 mm^−1 | Tb Th (trabecular thickness) [2, 7]: 129.22 μm and 93.20 μm and 120.52 μm and 126.07 μm | Increase in osteoid surface ([2]; vertebra): 37% | Increase in osteoid volume ([2]; vertebra): 213% | Increase in the osteoblast surface ([2]; vertebra): 24% | Reduction of cortical thickness and increase of cortical porosity ([2]; vertebra (V)): not in vertebra | BT/TV (trabecular bone volume) [2, 8]: 20.95% | Ct Por (cortical porosity) [2, 8]: 1.07% | Ct Th (cortical thickness) [2, 8]: 675.50 μm | ES/BS (eroded surface) [2, 8]: 4.53% | OS/BS (osteoid surface) [2, 8]: 25.36% | OV/BV (osteoid volume) [2, 8]: 4.45% | Obs/BS (osteoblast surface) [2, 8]: 9.56% | Tb N (trabecular number) [2, 8]: 1.68 mm^−1 | Tb Th (trabecular thickness) [2, 8]: 123.43 μm | BT/TV (trabecular bone volume) [2, 9]: 15.15% and 20.23% and 23.56% and 24.86% | Ct Por (cortical porosity) [2, 9]: 1.49% and 1.45% and 0.41% and 0.92% | Ct Th (cortical thickness) [2, 9]: 707.43 μm and 629.35 μm and 740.87 μm and 624.35 μm | ES/BS (eroded surface) [2, 9]: 9.31% and 2.30% and 2.55% and 3.96% | OS/BS (osteoid surface) [2, 9]: 18.84% and 41.28% and 23.65% and 17.66% | OV/BV (osteoid volume) [2, 9]: 3.24% and 8.42% and 3.49% and 2.66% | Obs/BS (osteoblast surface) [2, 9]: 10.36% and 9.07% and 10.47% and 8.33% | Tb N (trabecular number) [2, 9]: 1.44 mm^−1 and 1.70 mm^−1 and 1.75 mm^−1 and 1.84 mm^−1 | Tb Th (trabecular thickness) [2, 9]: 105.46 μm and 118.79 μm and 134.66 μm and 134.82 μm

cyclo[4-(NH2—C2H4—NH—CO—O)Pro-Phg-DTrp-Lys-Tyr(4-Bzl)-Phe] [SOM230]
Binding to somatostatin receptors [3]: binds to all somatostatin receptors except SSTR4

B1: FGF23CTP: unique 75-mer COOH-terminal peptide of FGF-23, SEQ ID NO: 2 (peptide, listed as Homo sapiens)
chain: HTRSAEDDSERDPLNVLKPRARMTPAPASCSQELPSAEDNSPMASDPLGVVRGGRVNTHAGGTGPEGCRPFAKFI
Effect on phosphate metabolism [4]: no effect | Routine clinical or biochemical changes [4]: No routine clinical or biochemical changes | Thickness of the inner nuclear layer, outer nuclear layer, ganglion cell layer vs PBS ([5]; five days after injection): no marked difference | Ganglion cell layer thickness, average [5, 10]: 2.25 mm | Inner nuclear layer thickness, average [5, 10]: 6 mm | Outer nuclear layer thickness, average [5, 10]: 10.63 mm | Neuronal damage in the eye ([5]; three animals, five days after injection): not to induce any neuronal damage

Source: patent US20130040882A1, “USE OF FIBROBLAST GROWTH FACTOR FRAGMENTS” (NOVARTIS AG, priority 2003, published 2013)
